The target in one assay is ClpP1P2 (Mycolicibacterium smegmatis, UniProt A0R197+A0R198). Briefly: ClpP1P2 inhibition whole-cell RFP-SsrA reporter assay. A general note: Reporter assays use an easily measured gene product as a stand-in for the process of interest.
The next assay concerns the target T1, Proteinase K (Parengyodontium album, UniProt P06873).
T1 construct: Reaction Biology Corporation (contract testing)
Briefly: Protease panel: Proteinase K. Format: biochemical.

T1 sequence (P06873 106-384): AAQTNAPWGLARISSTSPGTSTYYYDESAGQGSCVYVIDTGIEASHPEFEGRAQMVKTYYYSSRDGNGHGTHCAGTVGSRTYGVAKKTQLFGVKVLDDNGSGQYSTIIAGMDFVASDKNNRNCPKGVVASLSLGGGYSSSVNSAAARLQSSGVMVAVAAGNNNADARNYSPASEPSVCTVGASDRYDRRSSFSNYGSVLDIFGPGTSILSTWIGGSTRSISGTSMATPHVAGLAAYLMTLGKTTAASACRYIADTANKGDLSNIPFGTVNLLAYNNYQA
ClpP1P2, sequence (A0R198 4-203): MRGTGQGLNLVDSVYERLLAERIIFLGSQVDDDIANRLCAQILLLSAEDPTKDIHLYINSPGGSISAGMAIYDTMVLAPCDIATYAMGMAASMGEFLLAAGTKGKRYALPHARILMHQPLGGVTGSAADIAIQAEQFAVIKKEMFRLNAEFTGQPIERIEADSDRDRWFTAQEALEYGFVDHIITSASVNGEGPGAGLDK
ClpP1P2, sequence (A0R197 17-218): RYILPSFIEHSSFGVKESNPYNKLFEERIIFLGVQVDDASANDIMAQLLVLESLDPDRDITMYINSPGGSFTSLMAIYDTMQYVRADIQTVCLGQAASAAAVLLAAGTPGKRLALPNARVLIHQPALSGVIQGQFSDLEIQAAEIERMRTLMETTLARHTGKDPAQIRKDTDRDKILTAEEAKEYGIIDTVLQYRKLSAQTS
Method for Proteinase K: Protease panel testing was carried out by Reaction Biology Corporation.

Turning to `O=C(N[C@@H](Cc1ccccn1)C(=O)N[C@@H](CCc1ccccc1)B(O)O)c1cnccn1` [Compound 58, ((R)-3-phenyl-1-((S)-2-(pyrazine-2-carboxamido)-3-(pyridin-2-yl)propanamido)propyl)boronic acid], the IC50 worked out at 1.5 ± 0.5 µM against ClpP1P2 (M. smegmatis ΔprcAB IC50 (μM) for ClpP1P2, whole-cell RFP-SsrA reporter, 3 h incubation); 0.35 µM at Proteinase K (Table 6, 10-dose response, top 10 μM); 0.352 µM against Proteinase K (supplement panel table, test and control compound). Besides, the “improvement of ClpP1P2 potency compared to compound 1” value at ClpP1P2 (M. smegmatis ΔprcAB reporter) turned out to be 4 fold.

For orientation: IC50 means the concentration needed to halve the response being measured. A low value points to greater potency.
